Experiment [1] concerns Human alphaherpesvirus 1. Description: Antiviral activity against HSV1 KOS infected in african green monkey Vero cells assessed as inhibition of viral plaque formation in […] cells at 100 uM after 5 days by plaque reduction assay. It is filed as functional. Particulars: Human alphaherpesvirus 1, KOS, 120 h.
Experiment [2] relates to Neutrophil. Put plainly: Antiinflammatory activity in human neutrophils assessed as inhibition of FMLP/CB-induced elastase release at 10 ug/mL. Type of experiment: functional.

SMILES strings stand for the structures.

A word on the inhibition: it is the share of the control response that was lost under treatment. With `C[C@H]1C(=O)[C@@]2(C)CC[C@]34C[C@]56OC(=O)C[C@@]5(O)OC(C)(C)[C@@H]6C[C@H](O)[C@H]3C(=O)[C@@]3(O[C@H]5[C@H](OC(=O)[C@]5(C)O)[C@@H]1[C@]32C)O4` [ARISANLACTONE B], the inhibition at 100 µM in experiment [1] stood at 25%. Besides, in experiment [2], the inhibition at 10 µg/mL is 22.2%.
`C[C@@H]1C(=O)O[C@H]2[C@@H]1O[C@]13O[C@@]4(CC[C@]5(C)C(=O)[C@H](C)[C@H]2[C@]15C)C[C@]12OC(=O)C[C@@]1(O)OC(C)(C)[C@@H]2C[C@H](O)[C@H]4C3=O` [SCHINDILACTONE E]: the inhibition at 100 µM in experiment [1] was found to be 30%.
As for `C[C@H]([C@H](O)[C@@H]1C[C@@H](C)C(=O)O1)[C@@H]1[C@H]2[C@]1(C)CC[C@@]13O[C@]2(O)C(=O)[C@@H]1CC[C@H]1C(C)(C)O[C@@H]2[C@@H](O)C(=O)O[C@@]21[C@H]3O`, the inhibition at 10 µg/mL in experiment [2] is 18.5%.
The same measure, in the same setting: for `O=c1c(-c2ccc(O)cc2)coc2cc(O)cc(O)c12` [GENISTEIN] the value was 51.6%.

(Values after ChEMBL document CHEMBL1177729, “Nortriterpene lactones from the fruits of Schisandra arisanensis” (2010).)
